Values joined by “and” are separate entries in the source; they are usually repeats but may differ in a detail not shown here. Equal entries are not always repeated.
Legend:
[1] = DTA
[2] = molar heat capacity at constant pressure; details: 101.33 kPa, Large sample (1 g) DSC
[3] = Molar enthalpy of transition or fusion; details: DSC

CCCCCCCC(N)=O [octanamide]
Details | Molar enthalpy of transition or fusion, Crystal 1 | Molar enthalpy of transition or fusion, Crystal 2 | Molar enthalpy of transition or fusion, Crystal 3 [kcal/mol] | Normal melting temperature, Crystal 1 | Triple point temperature, Crystal 2 | Triple point temperature, Crystal 3 [K]
[1] | – | – | – | 104 °C and 104.6 °C | 304.5 K and 304.5 K | 194.4
[3] | 6.6 kcal/mol and 6.5 kcal/mol | 0.232 kcal/mol and 0.237 kcal/mol | 0.457 | – | – | –

[2]
Details | molar heat capacity at constant pressure [J/K/mol]
183 K, Crystal 3 | 164.7
188 K, Crystal 3 | 169
193 K, Crystal 3 | 174.2
198 K, Crystal 2 | 180.6
203 K, Crystal 2 | 189.7
208 K, Crystal 2 | 197.1
213 K, Crystal 2 | 204.6
218 K, Crystal 2 | 213.2
223 K, Crystal 2 | 224.4
228 K, Crystal 2 | 228.2
233 K, Crystal 2 | 232.8
238 K, Crystal 2 | 234.3
243 K, Crystal 2 | 235.1
248 K, Crystal 2 | 236.3
253 K, Crystal 2 | 233.9
258 K, Crystal 2 | 236.1
263 K, Crystal 2 | 238.3
268 K, Crystal 2 | 235.4
273 K, Crystal 2 | 241.2
278 K, Crystal 2 | 242.7
283 K, Crystal 2 | 243.9
288 K, Crystal 2 | 244.9
293 K, Crystal 2 | 246.5
298 K, Crystal 2 | 245.1
303 K, Crystal 2 | 246.7
308 K, Crystal 1 | 249.3
313 K, Crystal 1 | 251.8

CCCCC(N)=O [pentanamide]
Details | Molar enthalpy of transition or fusion, Crystal 1 | Molar enthalpy of transition or fusion, Crystal 2 | Molar enthalpy of transition or fusion, Crystal 3 [kcal/mol] | Normal melting temperature, Crystal 1 | Triple point temperature, Crystal 2 | Triple point temperature, Crystal 3 [K]
[1] | – | – | – | 104.1 °C and 103.6 °C | 365 K and 365.4 K | 211.8
[3] | 4.28 kcal/mol and 4.61 kcal/mol | 0.287 kcal/mol and 0.253 kcal/mol | 0.454 | – | – | –

[2]
Details | molar heat capacity at constant pressure [J/K/mol]
183 K, Crystal 3 | 111.5
188 K, Crystal 3 | 116.1
193 K, Crystal 3 | 118.5
198 K, Crystal 3 | 122.5
203 K, Crystal 3 | 128.9
208 K, Crystal 3 | 133.1
213 K, Crystal 2 | 139.1
218 K, Crystal 2 | 145.1
223 K, Crystal 2 | 154
228 K, Crystal 2 | 162.5
233 K, Crystal 2 | 175
238 K, Crystal 2 | 183.4
243 K, Crystal 2 | 195.4
248 K, Crystal 2 | 200.8
253 K, Crystal 2 | 199.8
258 K, Crystal 2 | 196.2
263 K, Crystal 2 | 191.6
268 K, Crystal 2 | 185.8
273 K, Crystal 2 | 189.4
278 K, Crystal 2 | 187.1
283 K, Crystal 2 | 188.4
288 K, Crystal 2 | 188.4
293 K, Crystal 2 | 190
298 K, Crystal 2 | 190.3
303 K, Crystal 2 | 192.6
308 K, Crystal 2 | 196.4
313 K, Crystal 2 | 198.4
318 K, Crystal 2 | 202.5
323 K, Crystal 2 | 204.5

CCCCCCCCCCCCCCCCCCCCCC(N)=O [docosanamide]
Crystal
Details | Molar enthalpy of transition or fusion | Normal melting temperature
[1] | – | 110.2 °C and 111.8 °C
[3] | 15.1 kcal/mol and 15.5 kcal/mol | –

[2], Crystal
Details | molar heat capacity at constant pressure [J/K/mol]
228 K | 420.4
233 K | 431.8
238 K | 439.8
243 K | 449.2
248 K | 461.3
253 K | 470.1
258 K | 480.5
263 K | 493
268 K | 500.2
273 K | 511.9
278 K | 523.7
283 K | 539.7
288 K | 548.1
293 K | 561.1
298 K | 568.7

CCCCCC(N)=O [hexanamide]
Details | Molar enthalpy of transition or fusion, [3] | Normal melting temperature, [1] | Triple point temperature, [1]
Crystal 1 | 3.99 kcal/mol and 4.21 kcal/mol | 100 °C and 100 °C | –
Crystal 2 | 1.89 kcal/mol | – | 305.1 K and 306 K

[2], Crystal 2
Details | molar heat capacity at constant pressure [J/K/mol]
183 K | 119.1
188 K | 121.1
193 K | 126.6
198 K | 128.6
203 K | 132.5
208 K | 135.8
213 K | 138.8
218 K | 142.1
223 K | 146.7
228 K | 150.8
233 K | 155.3
238 K | 160.1
243 K | 165.6
248 K | 169.6
253 K | 173.1

CCCCCCCCCC(N)=O [decanamide]
Details | Molar enthalpy of transition or fusion, Crystal 1 | Molar enthalpy of transition or fusion, Crystal 2 | Molar enthalpy of transition or fusion, Crystal 3 [kcal/mol] | Normal melting temperature, Crystal 1 | Triple point temperature, Crystal 2 | Triple point temperature, Crystal 3
[1] | – | – | – | 97.5 °C and 97.8 °C | 366.3 K and 366.9 K | 218.7 K and 218.7 K
[3] | 3.61 kcal/mol and 4.16 kcal/mol | 4.49 kcal/mol and 5.04 kcal/mol | 0.251 | – | – | –

[2], Crystal 2
Details | molar heat capacity at constant pressure [J/K/mol]
263 K | 236.4
268 K | 238.5
273 K | 247.6
278 K | 251.1
283 K | 260.7
288 K | 266.4
293 K | 270.2
298 K | 272.4
303 K | 278.5
308 K | 287
313 K | 291.6
318 K | 297.9
323 K | 304.4

Reference: the NIST ThermoML archive (doi:10.1021/je700662a)
